Reference: publication PMC11303713, “Allosteric inhibition of CFTR gating by CFTRinh-172 binding in the pore” (Nature Communications, 2024)
“And” between values parts separate entries of the source, which are not always exact repeats. Equal entries are not always repeated. Where two headings read alike, the source gives them in different places.

Experiments:
Assay in all cases: Inside-out patch-clamp inhibition of CFTR current by Inh-172
Type in all cases: cell-based
K95A-CFTR = molecular target: T1, K95A-CFTR (Homo sapiens, UniProt P13569, K95A)
T1 construct: expressed in transfected cells; host or cells: CHO cells, pcDNA plasmid
Protocol: (§1) CHO cells were grown at 37 °C in Dulbecco’s modified Eagle’s medium supplemented with 10% (vol/vol) fetal bovine serum (Sigma-Aldrich, St. Louis, MO). pcDNA plasmids carrying the desired CFTR construct were transfected to CHO cells using PolyFect transfection reagent (Qiagen, Hilden, Germany) together with green fluorescence protein (GFP) cDNA (pEGFP-C3, Takara Bio, Shiga, Japan) that helps identify expression of CFTR. Cells were first incubated with the transfection reagents at 37 °C for 6-12 hours on sterile glass chips in 35-mm tissue culture dishes before transferred to 27 °C for incubation for 2–7 days. Primers for mutations were ordered from Integrated DNA Technologies (Coralville, IA) and were summarized in Supplementary Data. All CFTR mutants were prepared with QuikChange XL kit (Agilent, Santa Clara, CA) and sequenced at the DNA Core facility at University of Missouri-Columbia.
(§2) Patch-clamp pipettes were made from borosilicate capillary glass using a two-stage vertical puller (PP-81; Narishige, Amityville, NY). The pipette tips were fire polished with a homemade microforge to yield a pipette resistance of 2–5 MΩ when filled with a pipette solution containing (in mM): 140 NMDG-Cl (N-methyl-D-glucamine-chloride), 5 CaCl2, 2 MgCl2, and 10 HEPES, pH 7.4. For recordings, transfected cells on glass chips were transferred into a continuously perfused chamber on the stage of an inverted microscope (IX51; Olympus, Tokyo, Japan) with the perfusing solution containing (in mM): 150 NMDG-Cl, 2 MgCl2, 10 EGTA, 8 Tris, and 10 HEPES, pH 7.4. The membrane patch was excised to an inside-out configuration with a seal resistance >40 GΩ. CFTR currents were recorded with an amplifier (EPC9; HEKA, Holliston, MA), filtered through an eight-pole Bessel filter (LPF-8; Warner Instruments, Hamden, CT) at 100 Hz and digitized to a computer at a sampling rate of 500 Hz with Pulse software (version 8.53; HEKA). The membrane potential was held at −30 mV. Solution exchange was achieved by a fast solution change system (SF-77B; Warner Instruments). Inh-172 was obtained from the CFTR Chemical Compound Program supported by the Cystic Fibrosis Foundation. All experiments were performed at room temperature.
(§3) The steady state mean currents were measured in the Igor Pro software (version 8.0; WaveMetrics). The mean baseline currents were subtracted from the steady state mean currents before the data were used to determine the degrees of inhibition. The degrees of inhibition by CFTR inhibitor 172 were calculated based on the equation:1 %inhibition=1−IInh−172/I0X100% where I0 and Iinh−172 represent uninhibited and inhibited currents, respectively. The IC50 and Hill coefficients were obtained by fitting percent inhibition as a function of [Inh-172] with the Hill equation:2 %inhibition=base+(max−base)/1+xhalf/x^rate where max and base represent the […] percent inhibition by Inh-172, x represents the concentration of Inh-172, and the rate is the Hill coefficient. The estimated IC50 (xhalf) and Hill coefficients are listed in Table 1 as mean ± standard deviation. Each patch-clamp recording was made from a separate cell.

[1] = molecular target: T2, h-pTMD2-h-CFTR (human CFTR with pig CFTR's TMD2) (Homo sapiens, UniProt P13569, A1009S/A789T/A797V/A842T/E1221D/E815D/F931L/G885K/H897K/H950R/I1005V/I1226V/I853V/I869V/I982V/INS1173D/K1174Q/K1177R/K830R/L805I/L889P/M1028L/M837V/M929L/N1184D/N782S/N886K/P888S/Q1012K/Q1035H/R1128T/R899A/S1196Q/S877C/S898G/S912A/T1171A/T1176N/T1179F/T1220V/T788A/T925G/V1017L/V1056I/V794M/W882C/Y1182S); details: for inhibition at 0.5 µM: 500 nM Inh-172; for inhibition at 1 µM: 1000 nM Inh-172; for inhibition at 10 µM: 10000 nM Inh-172
T2 construct: expressed in transfected cells; host or cells: CHO cells, pcDNA plasmid
Protocol: as §1, §2, §3

[2] = molecular target: T3, p-hTMD2-p-CFTR (pig CFTR with human CFTR's TMD2) (Sus scrofa, UniProt Q6PQZ2, A1172T/A789T/A900R/A913S/C878S/C883W/D1186N/D1223E/D816E/DEL1175-1175/F1181T/G899S/G926T/H1036Q/I1057V/I806L/K1013Q/K886G/K887N/K898H/L1018V/L1029M/L930M/L932F/M795V/N1178T/P890L/Q1176K/Q1198S/R1179K/R831K/R951H/S1010A/S1184Y/S783N/S889P/T1129R/T790A/T843A/V1006I/V1222T/V1228I/V798A/V838M/V854I/V870I/V983I)
T3 construct: expressed in transfected cells; host or cells: CHO cells, pcDNA plasmid
Protocol: as §1, §2, §3

[3] = 100 nM Inh-172, read-out: percent inhibition of current, Mean
[4] = 500 nM Inh-172, read-out: percent inhibition of current, Mean
[5] = 1000 nM Inh-172, read-out: percent inhibition of current, Mean
[6] = 1000 nM Inh-172, read-out: percent inhibition of current, individual cell
[7] = 5000 nM Inh-172, read-out: percent inhibition of current, Mean
[8] = 5000 nM Inh-172, read-out: percent inhibition of current, individual cell
[9] = 10000 nM Inh-172, read-out: percent inhibition of current, Mean
[10] = 10000 nM Inh-172, read-out: percent inhibition of current, individual cell
[11] = read-out: percent inhibition of current, Mean
[12] = read-out: percent inhibition of current, individual cell

T2 sequence (P13569 with tags, fused parts or gaps with the stated changes): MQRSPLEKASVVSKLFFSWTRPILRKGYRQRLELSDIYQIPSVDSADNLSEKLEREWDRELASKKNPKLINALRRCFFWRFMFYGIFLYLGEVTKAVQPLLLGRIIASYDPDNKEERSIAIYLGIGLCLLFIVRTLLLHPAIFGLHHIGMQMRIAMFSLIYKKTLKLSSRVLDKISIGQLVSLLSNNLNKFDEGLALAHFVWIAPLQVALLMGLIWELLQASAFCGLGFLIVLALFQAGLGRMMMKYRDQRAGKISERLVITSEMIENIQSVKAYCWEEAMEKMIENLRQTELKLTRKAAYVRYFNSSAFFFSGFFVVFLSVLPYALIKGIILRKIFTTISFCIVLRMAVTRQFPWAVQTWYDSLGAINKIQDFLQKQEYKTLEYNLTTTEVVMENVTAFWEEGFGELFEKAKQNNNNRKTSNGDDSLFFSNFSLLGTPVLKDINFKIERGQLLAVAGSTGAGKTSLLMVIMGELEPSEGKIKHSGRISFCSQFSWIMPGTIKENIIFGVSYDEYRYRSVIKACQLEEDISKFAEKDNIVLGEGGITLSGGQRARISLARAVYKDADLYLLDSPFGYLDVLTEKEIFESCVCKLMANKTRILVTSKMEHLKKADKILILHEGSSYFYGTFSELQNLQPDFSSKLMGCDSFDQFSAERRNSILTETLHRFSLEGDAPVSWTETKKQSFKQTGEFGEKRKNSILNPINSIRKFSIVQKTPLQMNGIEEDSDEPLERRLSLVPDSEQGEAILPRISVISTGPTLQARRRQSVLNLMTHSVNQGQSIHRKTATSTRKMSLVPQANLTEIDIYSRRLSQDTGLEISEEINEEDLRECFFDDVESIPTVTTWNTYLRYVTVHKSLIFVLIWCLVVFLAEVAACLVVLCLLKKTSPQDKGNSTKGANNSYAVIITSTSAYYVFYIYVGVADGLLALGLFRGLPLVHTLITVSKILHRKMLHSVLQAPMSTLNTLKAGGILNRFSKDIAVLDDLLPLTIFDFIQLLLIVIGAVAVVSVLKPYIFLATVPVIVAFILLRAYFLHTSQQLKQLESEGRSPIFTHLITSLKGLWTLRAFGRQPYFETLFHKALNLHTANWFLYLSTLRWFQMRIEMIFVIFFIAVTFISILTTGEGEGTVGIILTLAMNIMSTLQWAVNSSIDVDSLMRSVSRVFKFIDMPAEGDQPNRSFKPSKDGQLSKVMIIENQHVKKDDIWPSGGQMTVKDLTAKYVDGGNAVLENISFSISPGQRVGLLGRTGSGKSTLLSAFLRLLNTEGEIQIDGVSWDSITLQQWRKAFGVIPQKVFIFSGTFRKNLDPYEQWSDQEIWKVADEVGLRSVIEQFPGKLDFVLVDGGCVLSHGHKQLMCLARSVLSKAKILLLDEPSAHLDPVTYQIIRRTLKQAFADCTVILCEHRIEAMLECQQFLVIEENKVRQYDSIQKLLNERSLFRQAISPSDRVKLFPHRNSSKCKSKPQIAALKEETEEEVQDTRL
T1 sequence (P13569 whole entry K95A): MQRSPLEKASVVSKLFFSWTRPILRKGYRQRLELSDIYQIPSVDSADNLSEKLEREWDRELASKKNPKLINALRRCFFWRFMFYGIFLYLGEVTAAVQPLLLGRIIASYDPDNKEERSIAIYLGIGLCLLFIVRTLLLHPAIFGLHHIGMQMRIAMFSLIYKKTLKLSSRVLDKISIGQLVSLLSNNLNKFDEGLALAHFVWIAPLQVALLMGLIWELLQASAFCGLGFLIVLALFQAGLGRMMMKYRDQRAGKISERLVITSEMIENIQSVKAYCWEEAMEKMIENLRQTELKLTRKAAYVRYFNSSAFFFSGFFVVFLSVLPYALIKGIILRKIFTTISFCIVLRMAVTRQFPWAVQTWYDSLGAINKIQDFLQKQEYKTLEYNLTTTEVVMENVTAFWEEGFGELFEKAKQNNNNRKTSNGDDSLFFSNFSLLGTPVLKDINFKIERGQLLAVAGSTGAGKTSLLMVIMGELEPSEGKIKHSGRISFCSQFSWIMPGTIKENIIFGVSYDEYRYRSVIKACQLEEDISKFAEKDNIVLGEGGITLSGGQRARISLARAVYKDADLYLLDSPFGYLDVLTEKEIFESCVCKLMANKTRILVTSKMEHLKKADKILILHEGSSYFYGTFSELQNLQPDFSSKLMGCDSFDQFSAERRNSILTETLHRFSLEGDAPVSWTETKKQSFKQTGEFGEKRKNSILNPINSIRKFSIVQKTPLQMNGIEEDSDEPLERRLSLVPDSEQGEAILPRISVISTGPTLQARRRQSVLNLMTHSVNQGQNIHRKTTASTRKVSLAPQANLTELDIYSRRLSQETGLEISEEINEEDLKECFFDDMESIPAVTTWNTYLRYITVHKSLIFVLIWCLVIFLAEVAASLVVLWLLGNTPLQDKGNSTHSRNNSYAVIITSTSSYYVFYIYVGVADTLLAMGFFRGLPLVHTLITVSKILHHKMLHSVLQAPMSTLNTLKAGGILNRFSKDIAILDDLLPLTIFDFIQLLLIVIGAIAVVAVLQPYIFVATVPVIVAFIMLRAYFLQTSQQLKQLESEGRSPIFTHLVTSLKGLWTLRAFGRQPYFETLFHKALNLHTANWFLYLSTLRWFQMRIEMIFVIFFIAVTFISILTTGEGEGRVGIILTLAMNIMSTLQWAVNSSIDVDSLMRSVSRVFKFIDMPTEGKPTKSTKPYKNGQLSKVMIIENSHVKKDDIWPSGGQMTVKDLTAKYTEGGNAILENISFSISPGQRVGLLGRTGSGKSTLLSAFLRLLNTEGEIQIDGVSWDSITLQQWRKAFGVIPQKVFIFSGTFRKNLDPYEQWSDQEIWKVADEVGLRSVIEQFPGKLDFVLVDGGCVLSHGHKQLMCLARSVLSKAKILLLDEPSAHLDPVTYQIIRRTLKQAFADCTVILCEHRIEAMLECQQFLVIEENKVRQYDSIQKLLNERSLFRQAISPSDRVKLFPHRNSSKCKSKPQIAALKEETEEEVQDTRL
T3 sequence (Q6PQZ2 with tags, fused parts or gaps with the stated changes): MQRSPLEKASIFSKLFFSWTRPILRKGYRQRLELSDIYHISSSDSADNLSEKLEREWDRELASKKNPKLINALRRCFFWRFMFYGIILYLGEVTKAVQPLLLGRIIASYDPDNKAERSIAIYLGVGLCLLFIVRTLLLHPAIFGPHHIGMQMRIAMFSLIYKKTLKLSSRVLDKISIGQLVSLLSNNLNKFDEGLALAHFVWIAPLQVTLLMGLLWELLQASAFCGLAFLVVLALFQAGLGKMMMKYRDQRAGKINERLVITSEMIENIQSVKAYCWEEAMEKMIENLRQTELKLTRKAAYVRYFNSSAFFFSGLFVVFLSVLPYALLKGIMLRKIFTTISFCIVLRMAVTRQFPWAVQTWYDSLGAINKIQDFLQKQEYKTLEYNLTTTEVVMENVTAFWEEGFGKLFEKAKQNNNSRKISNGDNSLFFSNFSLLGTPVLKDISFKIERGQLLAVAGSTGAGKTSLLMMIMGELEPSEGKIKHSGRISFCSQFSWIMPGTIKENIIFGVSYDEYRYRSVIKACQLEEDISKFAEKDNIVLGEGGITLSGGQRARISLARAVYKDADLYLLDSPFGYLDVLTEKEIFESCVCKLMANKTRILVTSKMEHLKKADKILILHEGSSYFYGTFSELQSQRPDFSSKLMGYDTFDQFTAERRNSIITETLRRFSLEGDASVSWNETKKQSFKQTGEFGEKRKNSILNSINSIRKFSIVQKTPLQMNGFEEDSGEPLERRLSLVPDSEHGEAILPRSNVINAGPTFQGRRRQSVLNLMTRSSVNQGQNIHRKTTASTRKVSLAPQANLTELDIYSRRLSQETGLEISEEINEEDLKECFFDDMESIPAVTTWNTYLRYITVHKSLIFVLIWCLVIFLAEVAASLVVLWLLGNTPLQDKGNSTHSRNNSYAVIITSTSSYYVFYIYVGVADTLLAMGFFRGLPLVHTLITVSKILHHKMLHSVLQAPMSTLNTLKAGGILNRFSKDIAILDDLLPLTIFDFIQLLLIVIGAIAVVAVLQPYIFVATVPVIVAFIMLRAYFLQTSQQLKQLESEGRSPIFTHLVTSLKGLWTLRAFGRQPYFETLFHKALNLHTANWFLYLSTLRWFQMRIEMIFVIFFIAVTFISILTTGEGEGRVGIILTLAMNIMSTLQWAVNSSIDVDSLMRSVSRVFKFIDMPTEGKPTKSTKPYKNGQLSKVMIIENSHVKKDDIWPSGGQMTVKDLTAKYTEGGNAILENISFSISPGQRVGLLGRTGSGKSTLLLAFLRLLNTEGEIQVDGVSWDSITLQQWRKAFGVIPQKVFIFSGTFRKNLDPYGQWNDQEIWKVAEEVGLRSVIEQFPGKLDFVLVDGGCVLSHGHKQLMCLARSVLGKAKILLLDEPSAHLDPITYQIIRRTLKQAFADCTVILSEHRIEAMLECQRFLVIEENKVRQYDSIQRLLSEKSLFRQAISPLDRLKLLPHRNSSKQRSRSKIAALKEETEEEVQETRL

For O=C(O)c1ccc(/C=C2\SC(=S)N(c3cccc(C(F)(F)F)c3)C2=O)cc1 [Inh-172, CFTRinh-172], the “percent inhibition of current, individual cell” value (from here on “percent inhibition of current”) (K95A-CFTR; 100 nM Inh-172) was 10.0 and 13.0 and 19.0 and 9.0 and 7.0 and 15.0, the inhibition at 0.1 µM (K95A-CFTR; [3]) was 12.2% and the inhibition at 0.5 µM (K95A-CFTR; 0.5 µM Inh-172, read-out: K95A-CFTR current inhibited) was ~40%. For the same compound, the “percent inhibition of current” value (K95A-CFTR; 500 nM Inh-172) was 23.0 and 38.0 and 46.0 and 31.0 and 29.0 and 42.0, the inhibition at 0.5 µM (K95A-CFTR; [4]) was 34.8% and the “percent inhibition of current” value (K95A-CFTR; 1000 nM Inh-172) was 58.0 and 62.0 and 47.0 and 59.0. For the same compound, the inhibition at 1 µM (K95A-CFTR; [5]) was 55.8%, the inhibition at 1 µM (K95A-CFTR; [6]) was 51% and the “percent inhibition of current” value (K95A-CFTR; 5000 nM Inh-172) was 88.0 and 84.0 and 81.0 and 85.0. The inhibition at 5 µM (K95A-CFTR; [7]) was 84.2%, the inhibition at 5 µM (K95A-CFTR; [8]) was 78% and the “percent inhibition of current” value (K95A-CFTR; 10000 nM Inh-172) was 95.0 and 94.0 and 93.0 and 90.0. For the same compound, the inhibition at 10 µM (K95A-CFTR; [9]) was 92.3%, the inhibition at 10 µM (K95A-CFTR; [10]) was 89% and the “Hill Coefficient” value (K95A-CFTR; K95A) was 0.98 ± 0.05. For the same compound, the IC50 (K95A-CFTR; K95A) was 850 ± 50 nM, the IC50 (K95A-CFTR; K95A, earlier manuscript version, peer review file) was 852 nM and the “increase of IC50 by K95A mutation vs WT” value (K95A-CFTR; cho cells inside-out patch) was 10 fold. The inhibition at 0.1 µM [1, 3] was 6.8%, the inhibition at 0.5 µM [1, 11] was 18.8% and the inhibition at 0.5 µM [1, 12] was 15%. It also gave an inhibition at 1 µM [1, 11] of 28.5%, an inhibition at 1 µM [1, 12] of 22% and an inhibition at 5 µM [1, 7] of 56.5%. For the same compound, the inhibition at 10 µM [1, 11] was 62.7%, the inhibition at 10 µM [1, 12] was 68% and the “Hill Coefficient” value ([1]; h-pTMD2-h) was 0.69 ± 0.04. For the same compound, the IC50 ([1]; h-pTMD2-h) was 4020 ± 280 nM, the IC50 ([1]; human CFTR with pig TMD2, earlier manuscript version, peer review file) was 4020 nM and the “percent inhibition of current” value ([2]; 50 nM Inh-172) was 48.0 and 39.0. The inhibition at 0.05 µM ([2]; 50 nM Inh-172, read-out: percent inhibition of current, Mean) was 46.3%, the inhibition at 0.05 µM ([2]; 50 nM Inh-172, read-out: percent inhibition of current, individual cell) was 52% and the “percent inhibition of current” value ([2]; 100 nM Inh-172) was 60.0 and 64.0 and 67.0 and 62.0 and 55.0. For the same compound, the inhibition at 0.1 µM [2, 3] was 63.6%, the inhibition at 0.1 µM ([2]; 100 nM Inh-172, read-out: percent inhibition of current, individual cell) was 75% and the “percent inhibition of current” value ([2]; 500 nM Inh-172) was 71.0 and 78.0 and 69.0 and 61.0. The inhibition at 0.5 µM [2, 4] was 72%, the inhibition at 0.5 µM ([2]; 500 nM Inh-172, read-out: percent inhibition of current, individual cell) was 81% and the “percent inhibition of current” value ([2]; 1000 nM Inh-172) was 84.0. The inhibition at 1 µM [2, 5] was 79.8%, the inhibition at 1 µM [2, 6] was 85% and the “percent inhibition of current” value ([2]; 5000 nM Inh-172) was 97.0 and 95.0. For the same compound, the inhibition at 5 µM [2, 7] was 96%, the inhibition at 5 µM [2, 8] was 96% and the “percent inhibition of current” value ([2]; 10000 nM Inh-172) was 98.0 and 100.0 and 90.0 and 93.0 and 91.0. For the same compound, the inhibition at 10 µM [2, 9] was 95.6%, the inhibition at 10 µM [2, 10] was 99% and the “Hill Coefficient” value ([2]; p-hTMD2-p) was 0.54 ± 0.08. The IC50 ([2]; p-hTMD2-p) was 60 ± 20 nM and the IC50 ([2]; pig CFTR with human TMD2, earlier manuscript version, peer review file) was 55 nM.
